Test results from patent US20170209348A1, “BIOPHOTONIC COMPOSITIONS COMPRISING HALOGEN AND USES THEREOF” (KLOX Technologies Inc., priority 2014, published 2017).

Test: Photobleaching of Eosin Y in carbomer gel under blue light
Format: physicochemical
Conditions: 109 μg/g Eosin Y, 12% urea peroxide, 200 ppm KI, blue light 5 cm, 10 minutes
Method: In this experiment, a first carbomer gel comprising 109 μg/g of Eosin Y and 12% urea peroxide (UP) was prepared. […] The two gels were then illuminated with blue light (5 cm distance) for 10 minutes. The fluorescence was measured and recorded by a spectrophotometer.

## [I-].[K+] [KI]
  time taken to photobleach the chromophore: prolonged the time taken to photobleach the chromophore
